Measured values from patent US8614237B2, “Benzofuran-4,5-diones as selective peptide deformylase inhibitors” (Sloan-Kettering Institute for Cancer Research, priority 2009, dated 2013).

Experiments:
[1] = system: MMP-1; assay: MMP-1 %I 100uM
Method: (§1) Table printed on a drawing sheet, Figure 5
Head of the field: MMP-1 %I 100uM
(§2) Footnotes: -26 124 % inhibition
(§3) The patent's description of the figure: FIG. 5.
Where the first naming reader finds the target: head: MMP-1 %I 100uM

[2] = biological target: T1, HsPDF (Homo sapiens, UniProt Q9HBH1); assay: HsPDF %I 10uM
T1 construct: A 63 amino acid N-terminally truncated human peptide deformylase (HsPDF); 6His (C); made in house; host or cells: E. coli BL21 (DE3), co-transformed with the GroES/EL chaperone plasmid
Method: as §1
Head of the field: HsPDF %I 10uM
as §2, §3
Where the first naming reader finds the target: head: HsPDF %I 10uM

[3] = biological target: T1, HsPDF; assay: HsPDF %I 100uM
Method: as §1
Head of the field: HsPDF %I 100uM
as §2, §3
Where the first naming reader finds the target: head: HsPDF %I 100uM

[4] = system: EcPDF
Method: Head of the field: EcPDF %I 100uM
(§4) Specificity profiling of the derivatives of benzofuran-4,5-diones.
Where the first naming reader finds the target: head: EcPDF %I 100uM

[5] = system: EcPDF; remark: listed apart in the source
Method: Head of the field: EcPDF %I 10uM
as §4
Where the first naming reader finds the target: head: EcPDF %I 10uM

[6] = system: APN; assay: APN %I 100uM
Method: as §1
Head of the field: APN %I 100uM
as §2, §3
Where the first naming reader finds the target: head: APN %I 100uM

Question: For `COc1ccc(C(=O)c2coc3ccc(O)cc23)cc1OC` [SKC-BF-Int13, (3,4-Dimethoxy-phenyl)-(5-hydroxy-benzofuran-3-yl)-methanone], which “MMP-1 %I 100uM” value [1] is on record?
Answer: 3 %I

Question: What about the “HsPDF %I 10uM” value [2] of the same molecule?
Answer: -6 %I

Question: And the “HsPDF %I 100uM” value [3]?
Answer: 8 %I

Question: What about the “EcPDF %I 100uM” value [4] of the same molecule?
Answer: 7 %I

Question: And the “EcPDF %I 10uM” value [5]?
Answer: -26 %I

Question: For `COc1ccc(C(=O)c2coc3c(Br)cc(O)c(Br)c23)cc1` [SKC-BF-Int7D, (4,7-Dibromo-5-hydroxy-benzofuran-3-yl)-(4-methoxy-phenyl)-methanone], which “HsPDF %I 10uM” value [2] is on record?
Answer: 0 %I

Question: What about the “HsPDF %I 100uM” value [3] of the same molecule?
Answer: -9 %I

Question: What about the “EcPDF %I 100uM” value [4] of the same molecule?
Answer: -8 %I

Question: `COc1ccc(C(=O)c2coc3c2C(=O)C(=O)C=C3Cl)cc1` [SKC-BF-03, 7-Chloro-3-(4-methoxybenzoyl)-benzofuran-4,5-dione] was tested. Which “EcPDF %I 10uM” value [5] did it give?
Answer: -6 %I

Question: `COc1ccc(C(=O)c2coc3ccc(O)cc23)cc1` [SKC-BF-Int9, (5-Hydroxy-benzofuran-3-yl)-(4-methoxyphenyl)-methanone] was tested. Which “APN %I 100uM” value [6] did it give?
Answer: 4 %I

Question: What about the “EcPDF %I 10uM” value [5] of the same molecule?
Answer: 5 %I

Question: Which results are given for `COc1ccc(C(=O)c2coc3c(Br)cc(O)cc23)cc1` [SKC-BF-Int7B, (7-Bromo-5-hydroxy-benzofuran-3-yl)-(4-methoxyphenyl)-methanone]?
Answer: MMP-1 %I 100uM [1]: -19 %I; APN %I 100uM [6]: -5 %I; EcPDF %I 100uM [4]: 9 %I; EcPDF %I 10uM [5]: 18 %I

Question: What does the source list for `COc1cc(C(=O)c2coc3c(Cl)c(Cl)c(O)cc23)cc(OC)c1OC` [SKC-BF-Int22, (6,7-Dichloro-5-hydroxy-benzofuran-3-yl)-(3,4,5-trimethoxy-phenyl)methanone]?
Answer: MMP-1 %I 100uM [1]: -14 %I; APN %I 100uM [6]: 2 %I; HsPDF %I 100uM [3]: 18 %I; EcPDF %I 100uM [4]: 2 %I; EcPDF %I 10uM [5]: 4 %I

Question: What does the source list for `COc1cc(C(=O)c2coc3c(Br)c(Br)c(O)cc23)cc(OC)c1OC` [SKC-BF-Int21, (6,7-Dibromo-5-hydroxy-benzofuran-3-yl)-(3,4,5-trimethoxy-phenyl)methanone]?
Answer: HsPDF %I 100uM [3]: 5 %I; EcPDF %I 100uM [4]: 7 %I; EcPDF %I 10uM [5]: 4 %I

Question: What does the source list for `COc1ccc(C(=O)c2coc3c2C(=O)C(=O)C(Cl)=C3Cl)cc1` [SKC-BF-05, 6,7-Dichloro-3-(4-methoxy-benzoyl)-benzofuran-4,5-dione]?
Answer: MMP-1 %I 100uM [1]: -19 %I; EcPDF %I 100uM [4]: 1 %I; EcPDF %I 10uM [5]: 0 %I

Question: What does the source list for `COc1ccc(C(=O)c2coc3c(Cl)c(Cl)c(O)cc23)cc1` [SKC-BF-Int10F, (6,7-Dichloro-5-hydroxy-benzofuran-3-yl)-(4-methoxyphenyl)-methanone]?
Answer: APN %I 100uM [6]: -4 %I; HsPDF %I 10uM [2]: 4 %I

Question: For `COc1ccc(C(=O)c2coc3c(Br)c(Br)c(O)cc23)cc1OC` [SKC-BF-Int14, (6,7-Dibromo-5-hydroxy-benzofuran-3-yl)-(3,4-dimethoxy-phenyl)-methanone], which “MMP-1 %I 100uM” value [1] is on record?
Answer: -20 %I

Question: What about the “APN %I 100uM” value [6] of the same molecule?
Answer: -6 %I

Question: And the “HsPDF %I 10uM” value [2]?
Answer: 3 %I

Question: What about the “EcPDF %I 100uM” value [4] of the same molecule?
Answer: -20 %I

Question: And the “EcPDF %I 10uM” value [5]?
Answer: 3 %I

Question: How did the “HsPDF %I 10uM” value [2] turn out when `COc1ccc(C(=O)c2coc3c2C(=O)C(=O)C(Br)=C3)cc1` [SKC-BF-06, 6-Bromo-3-(4-methoxybenzoyl)-benzofuran-4,5-dione] was run?
Answer: 29 %I

Question: With `COc1ccc(C(=O)c2coc3ccc(O)c(Br)c23)cc1` [SKC-BF-Int7C, (4-Bromo-5-hydroxy-benzofuran-3-yl)-(4-methoxyphenyl)-methanone] as the molecule, how does the “APN %I 100uM” value [6] read?
Answer: -14 %I

Question: What about the “HsPDF %I 10uM” value [2] of the same molecule?
Answer: 3 %I

Question: What about the “HsPDF %I 100uM” value [3] of the same molecule?
Answer: -20 %I

Question: And the “EcPDF %I 100uM” value [4]?
Answer: -4 %I

Question: What about the “EcPDF %I 10uM” value [5] of the same molecule?
Answer: -4 %I

Question: Which “MMP-1 %I 100uM” value [1] does the source give for `COc1cc(C(=O)c2coc3c2C(=O)C(=O)C(Cl)=C3Cl)cc(OC)c1OC` [SKC-BF-11, 6,7-Dichloro-3-(3,4,5-trimethoxy-benzoyl)-benzofuran-4,5-dione] here?
Answer: 32 %I

Question: What about the “EcPDF %I 100uM” value [4] of the same molecule?
Answer: 27 %I

Question: `COc1ccc(C(=O)c2coc3c(Cl)c(Cl)c(O)cc23)cc1OC` [SKC-BF-Int16, (6,7-Dichloro-5-hydroxy-benzofuran-3-yl)-(3,4-dimethoxy-phenyl)-methanone] was tested. Which “HsPDF %I 10uM” value [2] did it give?
Answer: -24 %I

Question: And the “HsPDF %I 100uM” value [3]?
Answer: -21 %I

Question: And the “EcPDF %I 100uM” value [4]?
Answer: -6 %I

Question: What about the “EcPDF %I 10uM” value [5] of the same molecule?
Answer: 4 %I

Question: What does the source list for `O=C(c1ccccc1)c1coc2ccc(O)cc12` [SKC-BF-Int3, (5-Hydroxy-benzofuran-3-yl)-phenyl-methanone]?
Answer: EcPDF %I 100uM [4]: 7 %I; EcPDF %I 10uM [5]: 7 %I

Question: What does the source list for `COc1ccc(C(=O)c2coc3c(Cl)cc(O)c(Cl)c23)cc1` [SKC-BF-Int10E, (4,7-Dichloro-5-hydroxy-benzofuran-3-yl)-(4-methoxy-phenyl)-methanone]?
Answer: MMP-1 %I 100uM [1]: -4 %I; APN %I 100uM [6]: -4 %I; HsPDF %I 100uM [3]: 9 %I; EcPDF %I 100uM [4]: -4 %I

Question: What does the source list for `COc1cc(C(=O)c2coc3ccc(O)cc23)cc(OC)c1OC` [SKC-BF-Int19]?
Answer: MMP-1 %I 100uM [1]: 19 %I; HsPDF %I 10uM [2]: 4 %I; HsPDF %I 100uM [3]: 31 %I; EcPDF %I 100uM [4]: 7 %I

Question: What does the source list for `O=C(c1ccccc1)c1coc2c(Cl)c(Cl)c(O)cc12` [SKC-BF-Int4, (6,7-Dichloro-5-hydroxy-benzofuran-3-yl)-phenyl-methanone]?
Answer: MMP-1 %I 100uM [1]: -20 %I; APN %I 100uM [6]: 6 %I; HsPDF %I 10uM [2]: 8 %I; HsPDF %I 100uM [3]: 24 %I; EcPDF %I 100uM [4]: 1 %I; EcPDF %I 10uM [5]: 6 %I

Question: With `COc1cc(C(=O)c2coc3c2C(=O)C(=O)c2ccccc2-3)cc(OC)c1OC` [SKC-NF-03, 3-(3,4,5-Trimethoxy-benzoyl)-naphtho[1,2-b]furan-4,5-dione] as the molecule, how does the “MMP-1 %I 100uM” value [1] read?
Answer: 21 %I

Question: And the “HsPDF %I 10uM” value [2]?
Answer: 25 %I

Question: What about the “EcPDF %I 100uM” value [4] of the same molecule?
Answer: 21 %I

Question: And the “EcPDF %I 10uM” value [5]?
Answer: 18 %I

Question: For `COc1ccc(C(=O)c2coc3c2C(=O)C(=O)c2ccccc2-3)cc1OC` [SKC-NF-02, 3-(3,4-Dimethoxy-benzoyl)-naphtho[1,2-b]furan-4,5-dione], which “MMP-1 %I 100uM” value [1] is on record?
Answer: 21 %I

Question: What about the “APN %I 100uM” value [6] of the same molecule?
Answer: 20 %I

Question: What about the “HsPDF %I 10uM” value [2] of the same molecule?
Answer: 18 %I

Question: What about the “HsPDF %I 100uM” value [3] of the same molecule?
Answer: 36 %I

Question: And the “EcPDF %I 100uM” value [4]?
Answer: 30 %I

Question: What about the “EcPDF %I 10uM” value [5] of the same molecule?
Answer: 17 %I

Question: `COc1ccc(C(=O)c2coc3cc(Br)c(O)cc23)cc1` [SKC-BF-Int7A, (6-Bromo-5-hydroxy-benzofuran-3-yl)-(4-methoxyphenyl)-methanone] was tested. Which “APN %I 100uM” value [6] did it give?
Answer: -17 %I

Question: And the “HsPDF %I 10uM” value [2]?
Answer: -17 %I

Question: What about the “HsPDF %I 100uM” value [3] of the same molecule?
Answer: -5 %I

Question: And the “EcPDF %I 100uM” value [4]?
Answer: -14 %I

Question: What about the “EcPDF %I 10uM” value [5] of the same molecule?
Answer: -8 %I

Question: Which “HsPDF %I 10uM” value [2] does the source give for `COc1ccc(C(=O)c2coc3cc(Cl)c(O)c(Cl)c23)cc1` [SKC-BF-Int10D, (4,6-Dichloro-5-hydroxy-benzofuran-3-yl)-(4-methoxyphenyl)-methanone] here?
Answer: 21 %I

Question: What about the “HsPDF %I 100uM” value [3] of the same molecule?
Answer: 26 %I

Question: What about the “EcPDF %I 100uM” value [4] of the same molecule?
Answer: 3 %I

Question: What about the “EcPDF %I 10uM” value [5] of the same molecule?
Answer: 4 %I
